Measurements published in PubChem BioAssay (NCI).
Values joined by “and” are separate entries in the source; they are usually repeats but may differ in a detail not shown here. Identical values can stand only once.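 Compound exposure: 48 hours, 5 concentrations, 96-well plates. GI50 marks 50% less growth. TGI marks complete inhibition of growth.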

Key:
Assay in all cases: growth of human tumour cells (NCI), 48 h
SF-539 CNS = test system: SF-539 CNS
SW-620 colon = test system: SW-620 colon
HL-60(TB) leukemia = test system: HL-60(TB) leukemia
SNB-19 CNS = test system: SNB-19 CNS
MALME-3M melanoma = test system: MALME-3M melanoma
786-0 renal = test system: 786-0 renal
HOP-92 NSCLC = test system: HOP-92 NSCLC
HOP-62 NSCLC = test system: HOP-62 NSCLC
KM12 colon = test system: KM12 colon
NCI/ADR-RES ovarian = test system: NCI/ADR-RES ovarian

Structure (SMILES)	GI50 (SF-539 CNS)	TGI (SF-539 CNS)	GI50 (SW-620 colon)	TGI (SW-620 colon)	GI50 (HL-60(TB) leukemia)	TGI (HL-60(TB) leukemia)	GI50 (SNB-19 CNS)	TGI (SNB-19 CNS)	GI50 (MALME-3M melanoma)	TGI (MALME-3M melanoma)	GI50 (786-0 renal)	TGI (786-0 renal)	GI50 (HOP-92 NSCLC)	TGI (HOP-92 NSCLC)	GI50 (HOP-62 NSCLC)	TGI (HOP-62 NSCLC)	GI50 (KM12 colon)	TGI (KM12 colon)	GI50 (NCI/ADR-RES ovarian)	TGI (NCI/ADR-RES ovarian)
CCn1c(-c2nonc2N)nc2c(C#CC(C)(C)O)ncc(OCC3CCNCC3)c21	3.36 µM	> 20.7 µM	10.1 µM	> 25 µM	6.63 µM	17.2 µM	10.6 µM	> 25 µM	> 25 µM	> 25 µM	6.11 µM	24.6 µM	> 25 µM	> 25 µM	11.5 µM	> 25 µM	7.58 µM	> 25 µM	12.8 µM	> 25 µM
Fc1ccc(-c2ncn(C3CCNCC3)c2-c2ccnc(Oc3ccc(Oc4ccccc4)cc3)n2)cc1	4.2 µM	7.92 µM	3.55 µM	7.06 µM	3.93 µM	8.33 µM	4.25 µM	7.92 µM	4.68 µM	8.95 µM	4.03 µM	7.75 µM	0.651 µM	4.15 µM	4.05 µM	7.64 µM	4.16 µM	7.8 µM	3.48 µM	7.04 µM
CCCCCCCC(=O)O[C@H]1[C@H]2[C@@H](CC1(C)C)C(=O)[C@]13O[C@H]1C(=O)[C@]1(CO1)[C@]23C	7.72 µM	12.7 µM and 21.3 µM	1.39 µM	3.27 µM and 2.74 µM	0.381 µM	4.57 µM and 2.04 µM		44.9 µM and 45.9 µM		10.9 µM and 6.34 µM		14.1 µM	2.83 µM	6.03 µM and 4.81 µM	19.5 µM	38.9 µM and 40.2 µM	19 µM	40.3 µM and 21.5 µM	2.39 µM and 1.72 µM	5.26 µM and 9.64 µM
O=C(N/N=C\c1cc(Br)cc(Br)c1O)N/N=C/c1cc(Br)cc(Br)c1O	1.73 µM	11 µM	4.52 µM	19.6 µM	1.28 µM	4.76 µM	3.65 µM	17.7 µM	11.5 µM	31.3 µM	10.1 µM	23.1 µM	1.85 µM	16.4 µM	8.99 µM	22.8 µM	2.9 µM	11.7 µM	3.16 µM	16 µM
O=C(Nc1ccc(Oc2cccc(Cl)c2)c(Cl)c1)c1cccnc1	1.49 µM	7.54 µM	1.21 µM	> 50 µM	1.51 µM	6.16 µM	3.15 µM	> 50 µM	3.16 µM	32.8 µM	2.69 µM	11.6 µM	2.73 µM	22.1 µM	1.8 µM	25.1 µM	0.782 µM	12 µM	1.28 µM	11.3 µM
COC(=O)CCCCCCCCC(=O)c1c(C)[nH]c(/C=C2\N=C(c3ccc[nH]3)C=C2OC)c1C	> 55.1 µM	> 100 µM	> 62 µM	> 100 µM	2.86 µM	16.6 µM	59.1 µM	> 100 µM	> 22.9 µM	> 100 µM	8.53 µM	> 43.4 µM	4.73 µM	> 30.5 µM	11.2 µM	> 57.9 µM	> 69.9 µM	> 100 µM	24.2 µM	> 100 µM
COc1cc2cc(C(=O)N3C[C@H](CCl)c4c3cc(O)c3ccccc43)[nH]c2c(OC)c1OC		0.192 µM	< 0.01 µM			0.0105 µM	0.0391 µM	1.42 µM and 1.67 µM	0.0259 µM	0.442 µM and 0.0827 µM	0.0174 µM	0.493 µM and 0.0519 µM		2.65 µM	0.0157 µM	0.198 µM and 1.06 µM	0.0425 µM	0.677 µM and 1.37 µM	1.34 µM	0.563 µM and 4.62 µM
c1ccc(-c2nn(-c3ccccc3)[n+](-c3ccccc3-c3ccccc3)n2)cc1	2.03 µM	23.4 µM	1.4 µM	> 73.1 µM	0.238 µM	0.878 µM	1.24 µM	> 80.7 µM	0.248 µM	1.53 µM	2.96 µM	21.2 µM	0.775 µM	5.48 µM	2.1 µM	> 42.2 µM	0.532 µM	11 µM	> 78.7 µM	> 100 µM
Cc1cncc2cccc(S(=O)(=O)N3CCCNC[C@@H]3C)c12	3.17 µM	> 56.7 µM	8.06 µM	> 100 µM	36.2 µM	100 µM	46.2 µM	> 100 µM	99.5 µM	> 100 µM	14.6 µM	> 100 µM	0.108 µM	> 100 µM	11.5 µM	> 100 µM	15.2 µM	> 100 µM	25.4 µM	> 100 µM
Cc1cccc(Cc2cnc(NC(=O)/C=C/c3ccco3)s2)c1	0.026 µM	0.0752 µM	0.0385 µM	> 100 µM	0.0281 µM	0.0837 µM	0.0488 µM	> 100 µM	0.0484 µM	> 100 µM	0.0598 µM	> 100 µM	8.5 µM	> 100 µM	0.0535 µM	> 100 µM	0.039 µM	> 100 µM	0.0364 µM	> 100 µM
